Reference: US12263248B2, “Compounds and compositions for intracellular delivery of therapeutic agents” (ModernaTX, Inc., priority 2018, dated 2025)
Read-outs that look alike come from different tables or passages of the source.

Key:
[1] = Nanoparticle characterisation: particle size, polydispersity index, zeta potential; type: physicochemical; details: nanoparticle composition with hEPO mRNA (Table 30)
Excerpt: Nanoparticle compositions may be characterized by a variety of methods. For example, microscopy (e.g., transmission electron microscopy or scanning electron microscopy) may be used to examine the morphology and size distribution of a nanoparticle composition. Dynamic light scattering or potentiometry (e.g., potentiometric titrations) may be used to measure zeta potentials. Dynamic light scattering may also be utilized to determine particle sizes. Instruments such as the Zetasizer Nano ZS (Malvern Instruments Ltd, Malvern, Worcestershire, UK) may also be used to measure multiple characteristics of a nanoparticle composition, such as particle size, polydispersity index, and zeta potential.
The mean size of a nanoparticle composition may be between 10s of nm and 100s of nm, e.g., measured by dynamic light scattering (DLS). For example, the mean size may be from about 40 nm to about 150 nm, such as about 40 nm, 45 nm, 50 nm, 55 nm, 60 nm, 65 nm, 70 nm, 75 nm, 80 nm, 85 nm, 90 nm, 95 nm, 100 nm, 105 nm, 110 nm, 115 nm, 120 nm, 125 nm, 130 nm, 135 nm, 140 nm, 145 nm, or 150 nm. In some embodiments, the mean size of a nanoparticle composition may be from about 50 nm to about 100 nm, from about 50 nm to about 90 nm, from about 50 nm to about 80 nm, from about 50 nm to about 70 nm, from about 50 nm to about 60 nm, from about 60 nm to about 100 nm, from about 60 nm to about 90 nm, from about 60 nm to about 80 nm, from about 60 nm to about 70 nm, from about 70 nm to about 150 nm, from about 70 nm to about 130 nm, from about 70 nm to about 100 nm, from about 70 nm to about 90 nm, from about 70 nm to about 80 nm, from about 80 nm to about 150 nm, from about 80 nm to about 130 nm, from about 80 nm to about 100 nm, from about 80 nm to about 90 nm, from about 90 nm to about 150 nm, from about 90 nm to about 130 nm, or from about 90 nm to about 100 nm. In certain embodiments, the mean size of a nanoparticle composition may from about 70 nm to about 130 nm or be from about 70 nm to about 100 nm. In a particular embodiment, the mean size may be about 80 nm. In other embodiments, the mean size may be about 100 nm. In other embodiments, the mean size may be about 120 nm.
A nanoparticle composition may be relatively homogenous. A polydispersity index may be used to indicate the homogeneity of a nanoparticle composition, e.g., the particle size distribution of the nanoparticle compositions. A small (e.g., less than 0.3) polydispersity index generally indicates a narrow particle size distribution. A nanoparticle composition may have a polydispersity index from about 0 to about 0.25, such as 0.01, 0.02, 0.03, 0.04, 0.05, 0.06, 0.07, 0.08, 0.09, 0.10, 0.11, 0.12, 0.13, 0.14, 0.15, 0.16, 0.17, 0.18, 0.19, 0.20, 0.21, 0.22, 0.23, 0.24, or 0.25. In some embodiments, the polydispersity index of a nanoparticle composition may be from about 0.10 to about 0.20.
The zeta potential of a nanoparticle composition may be used to indicate the electrokinetic potential of the composition. For example, the zeta potential may describe the surface charge of a nanoparticle composition. Nanoparticle compositions with relatively low charges, positive or negative, are generally desirable, as more highly charged species may interact undesirably with cells, tissues, and other elements in the body. In some embodiments, the zeta potential of a nanoparticle composition may be from about −10 mV to about +20 mV, from about −10 mV to about +15 mV, from about −10 mV to about +10 mV, from about −10 mV to about +5 mV, from about −10 mV to about 0 mV, from about −10 mV to about −5 mV, from about −5 mV to about +20 mV, from about −5 mV to about +15 mV, from about −5 mV to about +10 mV, from about −5 mV to about +5 mV, from about −5 mV to about 0 mV, from about 0 mV to about +20 mV, from about 0 mV to about +15 mV, from about 0 mV to about +10 mV, from about 0 mV to about +5 mV, from about +5 mV to about +20 mV, from about +5 mV to about +15 mV, or from about +5 mV to about +10 mV.

[2] = Pharmacokinetics of lipids in mice; type: in vivo; design: AUC / AUCall Mean: concentration or dose not given beside the values; details: mouse; for AUC: read-out: AUCall Mean
Experimental: FIGS. 45A and 45B are a pair of graphs illustrating pharmacokinetics of lipids of the disclosure in mice. Mice were administered compositions comprising Compound 50 (FIG. 45A) or Compound 301 (FIG. 45B), in nanoparticle compositions containing DSPC and PEG 1.

[3] = Liver, * = 2 terminal datapoints estimation
[4] = Spleen, * = 2 terminal datapoints estimation

Compound	Osmolality [1]	Zeta potential [1]	pH [1]	HL [2, 3]	HL ([2]; Plasma)	HL [2, 4]	Cmax ([2]; Liver)	AUC ([2]; Liver)	Tmax ([2]; Liver, read-out: Tmax)	Cmax ([2]; Plasma)	AUC ([2]; Plasma)	Tmax ([2]; Plasma, read-out: Tmax)	Cmax ([2]; Spleen)	AUC ([2]; Spleen)	Tmax ([2]; Spleen, read-out: Tmax)	also measured
CCCCC/C=C\C/C=C\CCCCCCCCC(CCCCCCCC/C=C\C/C=C\CCCCC)OC(=O)CCCN(C)C [MC3, DLin-MC3-DMA, reference compound]	318 mOsm/kg	−3.64 mV	7.52	52.5* hr	8.4 h	33.3* hr										AUCall Mean ([2]; Liver): 1,410,000 hr * ng/mL; Cmax Mean ([2]; Liver): 33,000 ng/mL; Tmax ([2]; Liver): 24 h; AUCall Mean ([2]; Plasma): 69,100 hr * ng/mL; Cmax Mean ([2]; Plasma): 28,900 ng/mL; Tmax ([2]; Plasma): 0.5 h; AUCall Mean ([2]; Spleen): 787,000 hr * ng/mL; Cmax Mean ([2]; Spleen): 21,200 ng/mL; Tmax ([2]; Spleen): 8 h
CCCCCCCCC(C)OC(=O)CCCCCCCN(CCO)CCCCCCCC(=O)OC(CCCCCCCC)CCCCCCCC (stereo not drawn) [Compound 48, decan-2-yl 8-((8-(heptadecan-9-yloxy)-8-oxooctyl)(2-hydroxyethyl)amino)octanoate]	311 mOsm/kg	−3.61 mV	7.58													
CCCCCCCCCOC(=O)CCCCCCCN(CCO)CCCCCCCC(=O)OC(CCCCCCCC)CCCCCCCC [Compound 18, Heptadecan-9-yl 8-((2-hydroxyethyl)(8-(nonyloxy)-8-oxooctyl)amino)octanoate]	312 mOsm/kg	−3.53 mV	7.64	5.8 h	1.2 h	10.6 h	6050 ng/mL	16900 ng·h/mL	1 h	44200 ng/mL	61800 ng·h/mL	0.5 h	3770 ng/mL	39400 ng·h/mL	4 h	
CCCCCCCCCCCOC(=O)CCCCCN(CCO)CCCCCCCC(=O)OC(CCCCCCCC)CCCCCCCC [Compound 25, Heptadecan-9-yl 8-((2-hydroxyethyl)(6-oxo-6-(undecyloxy)hexyl)amino)octanoate]	304 mOsm/kg	−3.88 mV	7.60	6.9 h	2.3 h	15.2 h	17900 ng/mL	89200 ng·h/mL	1 h	37500 ng/mL	35400 ng·h/mL	0.5 h	20400 ng/mL	259000 ng·h/mL	4 h	
CCCCCCCCCOC(=O)CCCN(CCO)CCCCCCCC(=O)OC(CCCCCCCC)CCCCCCCC [Compound 26, Heptadecan-9-yl 8-((2-hydroxyethyl)(4-(nonyloxy)-4-oxobutyl)amino) octanoate]	305 mOsm/kg	−3.73 mV	7.54													
